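Results reflect a 48-hour exposure of cells in 96-well plates to compound at five concentrations. Here, GI50 denotes the concentration required for 50% inhibition of growth.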 Calls of active or inactive are those of the source. No stated cut-off is given here; in the data, active = GI50 up to about 1.1 µM and inactive = higher. Peptide text beside a SMILES is read from it. * marks the point of attachment. X27 = Clc1c(Cl)c(Cl)c(O*)c(Cl)c1Cl; Boc = CC(C)(C)OC(=O)*; OBn = c1ccc(CO*)cc1; Bn = c1ccc(C*)cc1
What was measured:
Test in all cases: NCI tumour cell line growth inhibition, 48 h
[1] = tested on: OVCAR-3
[2] = tested on: UACC-62
[3] = tested on: MCF7
[4] = tested on: NCI-H226
[5] = tested on: OVCAR-5
[6] = tested on: SNB-19
[7] = tested on: MOLT-4
[8] = tested on: HOP-92
[9] = tested on: RPMI-8226
[10] = tested on: LOX IMVI
[11] = tested on: IGROV-1
[12] = tested on: TK-10
[13] = tested on: EKVX
[14] = tested on: HCT-116
[15] = tested on: PC-3
[16] = tested on: MDA-MB-231
[17] = tested on: SR
[18] = tested on: A549
[19] = tested on: HCC 2998

SMILES	GI50 [1]	GI50 [2]	GI50 [3]	GI50 [4]	GI50 [5]	GI50 [6]	GI50 [7]	GI50 [8]	GI50 [9]	GI50 [10]	GI50 [11]	GI50 [12]	GI50 [13]	GI50 [14]	GI50 [15]	GI50 [16]	GI50 [17]	GI50 [18]	GI50 [19]
O=C(O)CSCC(=O)c1ccccc1	> 100 µM (inactive)	> 100 µM (inactive)	> 100 µM (inactive)	> 100 µM (inactive)	> 100 µM (inactive)	> 100 µM (inactive)	> 100 µM (inactive)	> 100 µM (inactive)	> 100 µM (inactive)	> 100 µM (inactive)	> 100 µM (inactive)	> 100 µM (inactive)	> 100 µM (inactive)	> 100 µM (inactive)	> 100 µM (inactive)	> 100 µM (inactive)	> 100 µM (inactive)	> 100 µM (inactive)	
O=C(N/N=C\c1cccs1)c1ccncc1	> 100 µM (inactive)	> 100 µM (inactive)	> 100 µM (inactive)	> 100 µM (inactive)	> 100 µM (inactive)	> 100 µM (inactive)	> 100 µM (inactive)	> 100 µM (inactive)	> 100 µM (inactive)		> 100 µM (inactive)	> 100 µM (inactive)	> 100 µM (inactive)	> 100 µM (inactive)	> 100 µM (inactive)	> 100 µM (inactive)	> 100 µM (inactive)	> 100 µM (inactive)	> 100 µM (inactive)
O=c1n(-c2ccccc2)c(=O)n2n1C1CCC2CC1	> 100 µM (inactive)	> 100 µM (inactive)	> 100 µM (inactive)	> 100 µM (inactive)	> 100 µM (inactive)	> 100 µM (inactive)	> 100 µM (inactive)	> 100 µM (inactive)	> 100 µM (inactive)	> 100 µM (inactive)	> 100 µM (inactive)	> 100 µM (inactive)	> 100 µM (inactive)	> 100 µM (inactive)	> 100 µM (inactive)	> 100 µM (inactive)	> 100 µM (inactive)	> 100 µM (inactive)	
Cc1ccc([N+](=O)[O-])c2c(NCCCN(C)C)ccnc12	33.1 µM (inactive)		39.4 µM (inactive)	> 100 µM (inactive)	> 100 µM (inactive)	> 100 µM (inactive)	> 100 µM (inactive)	56.9 µM (inactive)	> 100 µM (inactive)	44.2 µM (inactive)	30 µM (inactive)	> 100 µM (inactive)	> 49 µM (inactive)	45.6 µM (inactive)	33.6 µM (inactive)	> 100 µM (inactive)	66.4 µM (inactive)	> 92 µM (inactive)	20.3 µM (inactive)
N#CC(NNC(=O)c1c(Cl)c(Cl)c(Cl)c(Cl)c1-c1nc2cc(C(=O)c3ccccc3)ccc2[nH]1)c1ccccc1 (centres undefined)	4.57 µM (inactive)		2.9 µM (inactive)	9.2 µM (inactive)	26.5 µM (inactive)	12.4 µM (inactive)	3.22 µM (inactive)	15 µM (inactive)	6.85 µM (inactive)	9.35 µM (inactive)	12.5 µM (inactive)	21.8 µM (inactive)	17.9 µM (inactive)	10.6 µM (inactive)	7.14 µM (inactive)	9.2 µM (inactive)	2.84 µM (inactive)	6.76 µM (inactive)	
NC(=O)NCCSC1CCCCC1O (centres undefined)	> 100 µM (inactive)	> 100 µM (inactive)	> 100 µM (inactive)	> 100 µM (inactive)	> 100 µM (inactive)	> 100 µM (inactive)	26.2 µM (inactive)	> 100 µM (inactive)	> 100 µM (inactive)	> 100 µM (inactive)	> 100 µM (inactive)	> 100 µM (inactive)	> 100 µM (inactive)	> 100 µM (inactive)	> 100 µM (inactive)	> 100 µM (inactive)	> 100 µM (inactive)	> 100 µM (inactive)	
Cc1c(OCc2cccc3ccccc23)ccc2c(O)cc(=S)oc12	22.9 µM (inactive)	23.1 µM (inactive)	45.7 µM (inactive)	39.5 µM (inactive)	54.1 µM (inactive)	37.6 µM (inactive)	32 µM (inactive)	27.1 µM (inactive)		22 µM (inactive)	42.6 µM (inactive)	56.5 µM (inactive)	44.1 µM (inactive)	26.7 µM (inactive)	35.2 µM (inactive)	46.5 µM (inactive)	28.7 µM (inactive)	55.7 µM (inactive)	31.4 µM (inactive)
COc1ccc(/C=c2/[nH]c(=O)/c(=C\c3ccc(OCc4ccccc4)cn3)[nH]c2=O)cc1	> 100 µM (inactive)	> 100 µM (inactive)	46 µM (inactive)	67.9 µM (inactive)	> 100 µM (inactive)	34.4 µM (inactive)	43.6 µM (inactive)	23.2 µM (inactive)		82.4 µM (inactive)		71.9 µM (inactive)	> 100 µM (inactive)	48 µM (inactive)	> 100 µM (inactive)	> 100 µM (inactive)	20.8 µM (inactive)	50.2 µM (inactive)	> 100 µM (inactive)
O=C(OC[C@H]1C[C@H]2C(=O)OCCC[C@H]2O1)c1ccccc1	> 100 µM (inactive)	> 100 µM (inactive)	> 100 µM (inactive)	> 100 µM (inactive)	> 100 µM (inactive)	> 100 µM (inactive)	> 100 µM (inactive)	> 100 µM (inactive)	> 100 µM (inactive)		> 100 µM (inactive)	> 100 µM (inactive)	> 100 µM (inactive)	> 100 µM (inactive)	> 100 µM (inactive)	> 100 µM (inactive)	> 100 µM (inactive)	> 100 µM (inactive)	
O=C1CCCC1CC(CN1CCOCC1)Sc1nnnn1-c1ccccc1 (centres undefined)	> 100 µM (inactive)	> 100 µM (inactive)	18.2 µM (inactive)	> 100 µM (inactive)	72.6 µM (inactive)	> 100 µM (inactive)	> 100 µM (inactive)	> 100 µM (inactive)	42.1 µM (inactive)	> 100 µM (inactive)	> 100 µM (inactive)		28.9 µM (inactive)	> 100 µM (inactive)	> 100 µM (inactive)	72.3 µM (inactive)	> 100 µM (inactive)	> 100 µM (inactive)	> 100 µM (inactive)
COc1ccc(/C=C(\NC(=O)c2ccccc2)C(=O)NN(C)c2ccnc3cc(Cl)ccc23)cc1OC	27.6 µM (inactive)		19.8 µM (inactive)	19.1 µM (inactive)	45.9 µM (inactive)	41.2 µM (inactive)	18.2 µM (inactive)	21.4 µM (inactive)	20 µM (inactive)	18.7 µM (inactive)	17.2 µM (inactive)	36.7 µM (inactive)	50.7 µM (inactive)	34.6 µM (inactive)	27.4 µM (inactive)	24.3 µM (inactive)	16.2 µM (inactive)	33 µM (inactive)	
Nc1nc(-c2ccccc2/N=N/N2CCCC2)nc2ccccc12	1.85 µM (inactive)	1.77 µM (inactive)	3.48 µM (inactive)	2.22 µM (inactive)	1.86 µM (inactive)	3.69 µM (inactive)	1.16 µM (inactive)	8 µM (inactive)	2 µM (inactive)	1.75 µM (inactive)	2.91 µM (inactive)	3.63 µM (inactive)	10.8 µM (inactive)	1.02 µM (active)	3.7 µM (inactive)	1.58 µM (inactive)	0.413 µM (active)	2.62 µM (inactive)	
CN(C)c1ccc(/C=C(\NC(=O)c2ccccc2)C2NC(Cc3c[nH]c4ccccc34)C(=O)O2)cc1 (centres undefined)	60.8 µM (inactive)	> 82.6 µM (inactive)	6.65 µM (inactive)	> 100 µM (inactive)	> 83.6 µM (inactive)	12 µM (inactive)	16.6 µM (inactive)	> 24.1 µM (inactive)	6.71 µM (inactive)	> 24.8 µM (inactive)	5.37 µM (inactive)		8.99 µM (inactive)	19.2 µM (inactive)	27.4 µM (inactive)	> 50.4 µM (inactive)	41.8 µM (inactive)	5.16 µM (inactive)	6.12 µM (inactive)
C=C[C@]1(O[Si](C)(C)C)C[C@@]2(C(=O)OCC)C(O)C(=O)N3CCc4cc(OC)c(OC)cc4[C@]312 (some centres undefined)	> 100 µM (inactive)	21.4 µM (inactive)	90.8 µM (inactive)	> 100 µM (inactive)	> 100 µM (inactive)	> 100 µM (inactive)	> 100 µM (inactive)	24.9 µM (inactive)	61.1 µM (inactive)	> 100 µM (inactive)	> 100 µM (inactive)	> 100 µM (inactive)	> 100 µM (inactive)	> 100 µM (inactive)	93.8 µM (inactive)	> 100 µM (inactive)	> 100 µM (inactive)	> 100 µM (inactive)	
CC(C)CC(NC(=O)C(CCC(=O)OCc1ccccc1)NC(=O)OC(C)(C)C)C(=O)NC(COCc1ccccc1)C(=O)NC(Cc1ccccc1)C(=O)Oc1c(Cl)c(Cl)c(Cl)c(Cl)c1Cl (centres undefined) (Boc-E(OBn)LS(Bn)F-X27; configuration not given here)		20.7 µM (inactive)	22.6 µM (inactive)		25.3 µM (inactive)	28.7 µM (inactive)	22.6 µM (inactive)	16.5 µM (inactive)	20.5 µM (inactive)	> 100 µM (inactive)	20.7 µM (inactive)	30.3 µM (inactive)	16 µM (inactive)	16.6 µM (inactive)	> 100 µM (inactive)	15.6 µM (inactive)	29.2 µM (inactive)	28.6 µM (inactive)	
